Measurements as given in US7420083B2, “Substituted aryloximes” (Wyeth, priority 2003, dated 2008).

Key:
[1] = molecular target: T1, recombinant human plasminogen activator inhibitor-1 (PAI-1) (Homo sapiens, UniProt P05121); test: Screening for PAI-1 inhibition (chromogenic tPA activity assay, Spectrozyme-tPA); assay type: biochemical; settings: for IC50: footnote b: IC50 determined by a modification of the Primary Screen for PAI-1 Inhibition
T1 construct: purchased Molecular Innovations, Royal Oak, Mich
T1 sequence (P05121 24-402): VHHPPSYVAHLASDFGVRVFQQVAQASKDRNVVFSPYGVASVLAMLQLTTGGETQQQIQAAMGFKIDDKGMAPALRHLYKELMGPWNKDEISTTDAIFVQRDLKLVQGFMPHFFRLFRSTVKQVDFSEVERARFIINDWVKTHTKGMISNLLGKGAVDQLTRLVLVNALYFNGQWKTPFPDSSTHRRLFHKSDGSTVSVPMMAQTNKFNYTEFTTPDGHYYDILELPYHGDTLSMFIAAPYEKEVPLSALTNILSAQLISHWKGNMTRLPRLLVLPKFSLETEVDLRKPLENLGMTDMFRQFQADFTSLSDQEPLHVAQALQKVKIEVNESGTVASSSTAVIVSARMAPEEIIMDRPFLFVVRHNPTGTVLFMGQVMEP
Description: Screening for PAI-1 inhibition. Test compounds are dissolved in DMSO at a final concentration of 10 mM, then diluted 100×in physiologic buffer. The inhibitory assay is initiated by the addition of the test compound (1-100 μM final concentration, maximum DMSO concentration of 0.2%) in a pH 6.6 buffer containing 140 nM recombinant human plasminogen activator inhibitor-1 (PAI-1; Molecular Innovations, Royal Oak, Mich.). Following a 1 hour incubation at room temperature, 70 nM of recombinant human tissue plasminogen activator (tPA) is added, and the combination of the test compound, PAI-1 and tPA is incubated for an additional 30 minutes. Following the second incubation, Spectrozyme-tPA (American Diagnostica, Greenwich, Conn.), a chromogenic substrate for tPA, is added and absorbance read at 405 nm at 0 and 60 minutes. Relative PAI-1 inhibition is equal to the residual tPA activity in the presence of the test compounds and PAI-1. Control treatments include the complete inhibition of tPA by PAI-1 at the molar ratio employed (2:1), and the absence of any effect of the test compound on tPA alone.

human PAI-1 = human PAI-1 (Homo sapiens, UniProt P05121); test: Assay for determining the IC50 of inhibition of PAI-1 (active PAI-1 bound to tPA-coated plate, 33B8 antibody detection); assay type: biochemical; settings: human PAI-1 50 ng/ml, pH 7.5
Sequence of human PAI-1 (P05121 24-402): as above
Description: Assay for determining the IC50 of inhibition of PAI-1. This assay is based upon the non-SDS dissociable interaction between tPA and active PAI-1. Assay plates are initially coated with human tPA (10 μg/ml). Test compounds are dissolved in DMSO at 10 mM, then diluted with physiologic buffer (pH 7.5) to a final concentration of 1-50 μM. The test compounds are incubated with human PAI-1 (50 ng/ml) for 15 minutes at room temperature. The tPA-coated plate is washed with a solution of 0.05% Tween 20 and 0.1% BSA, then the plate is blocked with a solution of 3% BSA. An aliquot of the test compound/PAI-1 solution is then added to the tPA-coated plate, incubated at room temperature for 1 hour, and washed. Active PAI-1 bound to the plate is assessed by adding an aliquot of a 1:1000 dilution of the 33B8 monoclonal antibody against human PAI-1, and incubating the plate at room temperature for 1 hour (Molecular Innovations, Royal Oak, Mich.). The plate is again washed, and a solution of goat anti-mouse IgG-alkaline phosphatase conjugate is added at a 1:50,000 dilution in goat serum. The plate is incubated 30 minutes at room temperature, washed, and a solution of alkaline phosphatase substrate is added. The plate is incubated 45 minutes at room temperature, and color development is determined at OD405 nm. The quantitation of active PAI-1 bound to tPA at varying concentrations of the test compound is used to determine the IC50. Results are analyzed using a logarithmic best-fit equation. The assay sensitivity is 5 ng/ml of human PAI-1 as determined from a standard curve ranging from 0-100 ng/ml.

[2] = PAI-1 inhibition at 25 μM test compound, pH 6.6 buffer, 140 nM PAI-1, 70 nM tPA

melting point [°C] | inhibition at 25 µM [1, 2] [%] | IC50 (human PAI-1) [µM] | IC50 [1] [µM] | SMILES | % Inhibition @ 25 μM [1, 2] [%]
205.6 to 206.6 |  |  | 25.7 | O=C(Nc1cc(OCCCO/N=C/c2ccc(-c3ccccc3)cc2)ccc1C(=O)O)c1ccc(C(F)(F)F)cc1 [Compound 20, 4-[3-({[(1E)-1,1′-Biphenyl-4-ylmethylidene]amino}oxy)propoxy]-2-{[4-(trifluoromethyl)benzoyl]amino}benzoic Acid] | 
174.3 to 175.7 | 26 |  |  | C/C(=N\OCCCOc1ccc(C(=O)O)c(NC(=O)c2ccc(C(F)(F)F)cc2)c1)c1ccccc1 [Compound 23, 4-[3-({[(1E)-1-Phenylethylidene]amino}oxy)propoxy]-2-{[4-(trifluoromethyl)benzoyl]amino}benzoic acid] | 
170.5 to 172.5 | 24 |  |  | O=C(O)c1ccc(OCCCO/N=C/c2ccc(-c3ccccc3)cc2)cc1NC(=O)c1ccccc1C(F)(F)F [Compound 26, 4-[3-({[(1E)-1,1′-biphenyl-4-ylmethylidene]amino}oxy)propoxy]-2-{[2-(trifluoromethyl)benzoyl]amino}benzoic Acid] | 
184.5 to 185.5 | 51 |  |  | O=C(Nc1cc(OCCCO/N=C/c2cc(C(F)(F)F)cc(C(F)(F)F)c2)ccc1C(=O)O)c1ccc(OC(F)(F)F)cc1 [Compound 28, 4-{3-[({(1E)-[3,5-Bis (trifluoromethyl)phenyl]methylidene}amino)oxy]propoxy}-2-{[4-(trifluoromethoxy)benzoyl]amino}benzoic Acid] | 
194.5 to 195.5 | 70 |  |  | O=C(Nc1cc(OCCCO/N=C/c2ccc(-c3ccccc3)cc2)ccc1C(=O)O)c1ccc(OC(F)(F)F)cc1 [Compound 29, 4-[3-({[(1E)-1,1′-Biphenyl-4-ylmethylidene]amino}oxy)propoxy]-2-{[4-(trifluoromethoxy)benzoyl]amino}benzoic Acid] | 
 |  | 15.9 |  | O=C(Nc1cc(OCCCO/N=C/c2ccc(C(F)(F)F)cc2)ccc1C(=O)O)c1ccc(OC(F)(F)F)cc1 [Compound 30, 2-{[4-(Trifluoromethoxy)benzoyl]amino}-4-{3-[({(1E)-[4-(trifluoromethyl)phenyl]methylidene}amino)oxy]propoxy}benzoic Acid] | 
156 to 158 | 14 |  |  | CC(C)(C)c1ccc(/C=N/OCCCOc2ccc(C(=O)O)c(NC(=O)c3ccc4ccccc4c3)c2)cc1 [Compound 34, 4-[3-({[(1E)-(4-tert-Butylphenyl)methylidene]amino}oxy)propoxy]-2-(2-naphthoylamino)benzoic Acid] | 
169 to 171 | 16 |  |  | CC(C)(C)c1ccc(/C=N/OCCCOc2ccc(C(=O)O)c(NC(=O)/C=C/c3ccc(-c4ccccc4)cc3)c2)cc1 [Compound 35, 2-{[(2E)-3-(1,1′-Biphenyl-4-yl)prop-2-enoyl]amino}-4-[3-({[(1E)-(4-tert-butylphenyl)methylidene]amino}oxy)propoxy]-benzoic Acid] | 
155 to 158.5 | 23 |  |  | CC(C)(C)c1ccc(/C=N/OCCCOc2ccc(C(=O)O)c(NC(=O)c3ccc(-c4ccccc4)cc3)c2)cc1 [Compound 36, 2-[(1,1′-Biphenyl-4-ylcarbonyl)amino]-4-[3-({[(1E)-(4-tert-butylphenyl)methylidene]amino}oxy)propoxy]benzoic Acid] | 

The next lines start with the compound.

SMILES | melting point [°C] | inhibition at 25 µM [1, 2] [%] | IC50 (human PAI-1) [µM] | IC50 [1] [µM] | % Inhibition @ 25 μM [1, 2] [%]
CC(=NOCCCOc1ccc(CC(=O)O)cc1)c1ccc(C(C)(C)C)cc1 [Compound 1, (4-{3-[1-(4-tert-Butyl-phenyl)-ethylideneaminooxy]-propoxy}-phenyl)-acetic Acid] | 98.7 to 99.7 | 39 |  |  | 
CC(=NOCc1ccc(CC(=O)O)cc1)c1ccc(C(C)(C)C)cc1 [Compound 2, {4-[1-(4-tert-Butyl-phenyl)-ethylideneaminooxymethyl]-phenyl}-acetic Acid] | 148.9 to 150 | 30 |  |  | 
CC(C)(C)c1ccc(C=NOCc2ccc(CC(=O)O)cc2)cc1 [Compound 3, [4-(4-tert-Butyl-benzylideneaminooxymethyl]-phenyl}-acetic Acid] | 93.3 to 96.2 | 19 |  |  | 
CC(C)(C)c1ccc(C=NOCCCOc2ccc(CC(=O)O)cc2)cc1 [Compound 4, {4-[3-(4-tert-Butyl-benzylideneaminooxy)-propoxy]-phenyl}-acetic Acid] | 56.2 to 59.2 |  | 34.2 |  | 
C/C(=N\OCCOc1ccc(C(=O)O)c(O)c1)c1ccc(C(C)(C)C)cc1 [Compound 5, 4-{2-[({(E)-1-[4-(tert-Butyl)-phenyl]-ethylidene}amino)oxy]-ethoxy}-2-hydroxy-benzoic Acid] | 157.4 to 158.7 |  |  | 20.2 | 
CC(=NOCCOc1ccc(C(=O)O)c(OC(=O)c2ccc(C(C)(C)C)cc2)c1)c1ccccc1 [Compound 6] |  |  | 16.7 |  | 
CC(C)(C)c1ccc(C=NOCCOc2ccc(C(=O)O)c(O)c2)cc1 [Compound 7, 4-{2-[({[4-(tert-Butyl)phenyl]methylidene}amino)oxy]ethoxy}-2-hydroxybenzoic Acid] | 161.4 to 162.7 | 33 |  |  | 
CC(C)(C)c1ccc(/C=N/OCCOc2ccc(C(=O)O)c(OC(=O)c3ccc(C(F)(F)F)cc3)c2)cc1 [Compound 8, 4-{2-[({(E)-[4-(tert-Butyl)phenyl]methylidene}amino)oxy]ethoxy}-2-{[4-(trifluoromethyl)benzoyl]oxy}benzoic Acid] | 146.3 to 147.9 | 1 |  |  | 
COc1ccc(C(=O)Oc2cc(OCCO/N=C/c3ccc(C(C)(C)C)cc3)ccc2C(=O)O)cc1 [Compound 9, 4-{2-[({(E)-[4-(tert-Butyl)phenyl]methylidene}amino)oxy]ethoxy}-2-[(4-methoxybenzoyl)oxy]benzoic Acid] | 115.5 to 117.5 |  |  | 25.6 | 
CC(C)(C)c1ccc(/C=N/OCCOc2ccc(C(=O)O)c(OC(=O)c3ccccc3)c2)cc1 [Compound 11, 2-(Benzoyloxy)-4-{2-[({(E)-[4-(tert-butyl)phenyl]methylidene}amino)oxy]ethoxy}benzoic Acid] | 129.3 to 130.6 |  |  | 8.4 | 
C/C(=N\OCCOc1ccc(C(=O)O)cc1Cl)c1ccc(C(C)(C)C)cc1 [Compound 12, 4-{2-[({(E)-1-[4-(tert-Butyl)phenyl]ethylidene}amino)oxy]-ethoxy}-3-chloro-benzoic Acid] | 167.1 to 168.8 |  |  | 11.2 | 
C/C(=N\OCCOc1ccc(C(=O)O)c(Cl)c1)c1ccc(C(C)(C)C)cc1 [Compound 13, 4-{2-[({(E)-1-[4-(tert-Butyl)phenyl]ethylidene}amino)oxy]-ethoxy}-2-chloro-benzoic Acid] | 142.7 to 143.9 | 34 |  |  | 
CC(C)(C)c1ccc(C=NOCCOc2ccc(C(=O)O)c(OCc3ccc(C(F)(F)F)cc3)c2)cc1 [Compound 14, 4-{2-[({[4-(tert-Butyl)phenyl]methylidene}amino)oxy]ethoxy}-2-{[4-(trifluoromethyl)benzyl]oxy}benzoic acid] | 164.1 to 164.8 | 28 |  |  | 
CC(C)(C)c1ccc(/C=N/OCCCOc2ccc(CCC(=O)O)cc2)cc1 [Compound 16, 3-(4-{3-[({(E)-[4-(tert-butyl)phenyl]methylidene}amino)oxy]propoxy}phenyl)propanoic Acid] | 101.2 to 102.1 | 42 |  |  | 
CC(C)(C)c1ccc(C=NOCCCOc2ccc(Cc3nnn[nH]3)cc2)cc1 [Compound 17, 4-(tert-Butyl)benzaldehyde 0-{3-[4-(1H-tetraazol-5-ylmethyl)-phenoxy]-propyl}oxime] |  |  |  |  | 35
CC(C)(C)c1ccc(/C=N/OCCCOc2ccc(C(=O)O)c(NC(=O)c3ccc(C(C)(C)C)cc3)c2)cc1 [Compound 18, 2-{[4-(tert-Butyl)benzoyl]amino}-4-{3-[({(E)-[4-(tert-butyl)phenyl]methylidene}amino)oxy]propoxy}benzoic Acid] | 192.3 to 193.8 |  |  | 18.5 | 
